From patent US3951955A, “Penicillins substituted with heterocyclic groups” (Sumitomo Chemical Company, Limited, priority 1970, dated 1976)
Converted amounts (≈) assume the structure as drawn.

Columns and labels:
Assay in all cases: minimal inhibitory concentration, agar dilution method (in vitro)
Type in all cases: cell-based
[1] = tested on: Pseudomonas aeruginosa 104
Text: (§1) When determined according to the agar dilution method, the penicillins [I] afford the minimal inhibitory concentrations as shown in the following Table 1: […]

[2] = tested on: Klebsiella pneumoniae 602
Text: as §1

[3] = tested on: Staphylococcus aureus 209P
Text: as §1

[4] = tested on: Escherichia coli NIHJ
Text: as §1

[5] = tested on: Proteus miravilis 2425
Text: as §1

Structure (SMILES) | MIC [1] [mg/L] | MIC [2] [mg/L] | MIC [3] [mg/L] | MIC [4] [mg/L] | MIC [5] [mg/L]
Cc1ccc2ncc(C(=O)NC(C(=O)NC3C(=O)N4C3SC(C)(C)C4C(=O)O)c3ccccc3)c(O)c2n1 (stereo not drawn) [Example 32] | 3.13 (≈ 5.84 µM) | 3.13 (≈ 5.84 µM) | 0.78 (≈ 1.46 µM) | 1.56 (≈ 2.91 µM) | 1.56 (≈ 2.91 µM)
CN(C)c1nccc2ncc(C(=O)NC(C(=O)NC3C(=O)N4C3SC(C)(C)C4C(=O)O)c3ccccc3)c(O)c12 (stereo not drawn) [Example 45] | 12.5 (≈ 22.1 µM) | 3.13 (≈ 5.54 µM) | 0.78 (≈ 1.38 µM) | 6.25 (≈ 11.1 µM) | 6.25 (≈ 11.1 µM)
CN(C)c1ncc2c(O)c(C(=O)NC(C(=O)NC3C(=O)N4C3SC(C)(C)C4C(=O)O)c3ccccc3)cnc2n1 (stereo not drawn) [Example 46] | 3.13 (≈ 5.53 µM) | 1.56 (≈ 2.76 µM) | 1.56 (≈ 2.76 µM) | 3.13 (≈ 5.53 µM) | 3.13 (≈ 5.53 µM)
CC(=O)Nc1ccc2ncc(C(=O)NC(C(=O)N[C@@H]3C(=O)N4[C@@H]3SC(C)(C)[C@@H]4C(=O)O)c3ccccc3)c(O)c2n1 (stereo partly drawn) [Example 30] | 6.25 (≈ 10.8 µM) | 3.13 (≈ 5.41 µM) | 0.78 (≈ 1.35 µM) | 3.13 (≈ 5.41 µM) | 6.25 (≈ 10.8 µM)
CC1(C)SC2C(NC(=O)C(NC(=O)c3cnc4cnc(O)nc4c3O)c3ccccc3)C(=O)N2C1C(=O)O (stereo not drawn) [Example 53] | 6.25 (≈ 11.6 µM) | 6.25 (≈ 11.6 µM) | 1.56 (≈ 2.9 µM) | 3.13 (≈ 5.81 µM) | 6.25 (≈ 11.6 µM)
COc1cc2ncc(C(=O)NC(C(=O)NC3C(=O)N4C3SC(C)(C)C4C(=O)O)c3ccccc3)c(O)c2cn1 (stereo not drawn) [Example 60] | 12.5 (≈ 22.7 µM) | 3.13 (≈ 5.67 µM) | 1.56 (≈ 2.83 µM) | 6.25 (≈ 11.3 µM) | 3.13 (≈ 5.67 µM)
CCCCNc1ccc2ncc(C(=O)NC(C(=O)NC3C(=O)N4C3SC(C)(C)C4C(=O)O)c3ccccc3)c(O)c2n1 (stereo not drawn) [Example 36] | 3.13 (≈ 5.28 µM) | 3.13 (≈ 5.28 µM) | 1.56 (≈ 2.63 µM) | 1.56 (≈ 2.63 µM) | 3.13 (≈ 5.28 µM)
CC1(C)S[C@@H]2[C@H](NC(=O)C(NC(=O)c3cnc4cc(C(F)(F)F)ccc4c3O)c3ccccc3)C(=O)N2[C@H]1C(=O)O (stereo partly drawn) [Example 20] | 6.25 (≈ 10.6 µM) | 0.39 (≈ 0.663 µM) | 0.39 (≈ 0.663 µM) | 12.5 (≈ 21.2 µM) | 3.13 (≈ 5.32 µM)
CC1(C)SC2C(NC(=O)C(NC(=O)c3cnc4cnc(NC(=O)OCc5ccccc5)nc4c3O)c3ccccc3)C(=O)N2C1C(=O)O (stereo not drawn) [Example 57] | 6.25 (≈ 9.3 µM) | 3.13 (≈ 4.66 µM) | 1.56 (≈ 2.32 µM) | 6.25 (≈ 9.3 µM) | 3.13 (≈ 4.66 µM)
COc1ccc2c(O)c(C(=O)NC(C(=O)N[C@@H]3C(=O)N4[C@@H]3SC(C)(C)[C@@H]4C(=O)O)c3ccccc3)cnc2c1 (stereo partly drawn) [Example 18] | 6.25 (≈ 11.4 µM) | 0.78 (≈ 1.42 µM) | 0.39 (≈ 0.708 µM) | 6.25 (≈ 11.4 µM) | 1.56 (≈ 2.83 µM)
COc1c(C(=O)NC(C(=O)N[C@@H]2C(=O)N3[C@@H]2SC(C)(C)[C@@H]3C(=O)O)c2ccccc2)cnc2ccccc12 (stereo partly drawn) [Example 14] | 12.5 (≈ 23.4 µM) | 25 (≈ 46.8 µM) | 0.2 (≈ 0.374 µM) | 25 (≈ 46.8 µM) | 12.5 (≈ 23.4 µM)
CC1(C)S[C@@H]2[C@H](NC(=O)C(NC(=O)c3cnc4cc([N+](=O)[O-])ccc4c3O)c3ccccc3)C(=O)N2[C@H]1C(=O)O (stereo partly drawn) [Example 21] | 12.5 (≈ 22.1 µM) | 0.78 (≈ 1.38 µM) | 0.39 (≈ 0.69 µM) | 12.5 (≈ 22.1 µM) | 6.25 (≈ 11.1 µM)
CCCCN(CCCC)c1ccc2ncc(C(=O)NC(C(=O)NC3C(=O)N4C3SC(C)(C)C4C(=O)O)c3ccccc3)c(O)c2n1 (stereo not drawn) [Example 42] | 3.13 (≈ 4.82 µM) | 3.13 (≈ 4.82 µM) | 1.56 (≈ 2.4 µM) | 3.13 (≈ 4.82 µM) | 3.13 (≈ 4.82 µM)
CC1(C)SC2C(NC(=O)C(NC(=O)c3cnc4cncnc4c3O)c3ccccc3)C(=O)N2C1C(=O)O (stereo not drawn) [Example 50] | 3.13 (≈ 5.99 µM) | 0.78 (≈ 1.49 µM) | 0.78 (≈ 1.49 µM) | 1.56 (≈ 2.99 µM) | 1.56 (≈ 2.99 µM)
CNc1ccc2ncc(C(=O)NC(C(=O)NC3C(=O)N4C3SC(C)(C)C4C(=O)O)c3ccccc3)c(O)c2n1 (stereo not drawn) [Example 35] | 3.13 (≈ 5.68 µM) | 3.13 (≈ 5.68 µM) | 0.78 (≈ 1.42 µM) | 1.56 (≈ 2.83 µM) | 6.25 (≈ 11.4 µM)
COc1nc(O)nc2c(O)c(C(=O)NC(C(=O)NC3C(=O)N4C3SC(C)(C)C4C(=O)O)c3ccccc3)cnc12 (stereo not drawn) [Example 52] | 6.25 (≈ 11 µM) | 3.13 (≈ 5.51 µM) | 1.56 (≈ 2.74 µM) | 3.13 (≈ 5.51 µM) | 3.13 (≈ 5.51 µM)
CCOC(=O)Oc1c(C(=O)NC(C(=O)N[C@@H]2C(=O)N3[C@@H]2SC(C)(C)[C@@H]3C(=O)O)c2ccccc2)cnc2cc(Cl)ccc12 (stereo partly drawn) [Example 16] | 3.13 (≈ 4.99 µM) | 0.39 (≈ 0.622 µM) | 0.2 (≈ 0.319 µM) | 6.25 (≈ 9.97 µM) | 3.13 (≈ 4.99 µM)
CC1(C)S[C@@H]2[C@H](NC(=O)C(NC(=O)c3cnc4ccc(O)nc4c3O)c3ccccc3)C(=O)N2[C@H]1C(=O)O (stereo partly drawn) [Example 29] | 3.13 (≈ 5.82 µM) | 3.13 (≈ 5.82 µM) | 1.56 (≈ 2.9 µM) | 1.56 (≈ 2.9 µM) | 3.13 (≈ 5.82 µM)
CC1(C)SC2C(NC(=O)C(NC(=O)c3cnc4ccc(N)nc4c3O)c3ccccc3)C(=O)N2C1C(=O)O (stereo not drawn) [Example 40] | 3.13 (≈ 5.83 µM) | 1.56 (≈ 2.91 µM) | 0.78 (≈ 1.45 µM) | 1.56 (≈ 2.91 µM) | 1.56 (≈ 2.91 µM)
CC1(C)S[C@@H]2[C@H](NC(=O)C(NC(=O)c3cnc4cc(Cl)ccc4c3O)c3ccccc3)C(=O)N2[C@H]1C(=O)O (stereo partly drawn) [Example 15] | 3.13 (≈ 5.64 µM) | 0.39 (≈ 0.703 µM) | 0.2 (≈ 0.36 µM) | 3.13 (≈ 5.64 µM) | 1.56 (≈ 2.81 µM)
Cc1ncc2ncc(C(=O)NC(C(=O)NC3C(=O)N4C3SC(C)(C)C4C(=O)O)c3ccccc3)c(O)c2n1 (stereo not drawn) [Example 56] | 3.13 (≈ 5.83 µM) | 3.13 (≈ 5.83 µM) | 0.78 (≈ 1.45 µM) | 3.13 (≈ 5.83 µM) | 6.25 (≈ 11.6 µM)
CC1(C)SC2C(NC(=O)C(NC(=O)c3cnc4nc(N)ncc4c3O)c3ccccc3)C(=O)N2C1C(=O)O (stereo not drawn) [Example 49] | 12.5 (≈ 23.3 µM) | 6.25 (≈ 11.6 µM) | 0.78 (≈ 1.45 µM) | 6.25 (≈ 11.6 µM) | 6.25 (≈ 11.6 µM)
CC1(C)SC2C(NC(=O)C(NC(=O)c3cnc4ncncc4c3O)c3ccccc3)C(=O)N2C1C(=O)O (stereo not drawn) [Example 47] | 3.13 (≈ 5.99 µM) | 3.13 (≈ 5.99 µM) | 0.78 (≈ 1.49 µM) | 3.13 (≈ 5.99 µM) | 6.25 (≈ 12 µM)
COc1ccc2ncc(C(=O)NC(C(=O)N[C@@H]3C(=O)N4[C@@H]3SC(C)(C)[C@@H]4C(=O)O)c3ccccc3)c(O)c2n1 (stereo partly drawn) [Example 28] | 3.13 (≈ 5.67 µM) | 3.13 (≈ 5.67 µM) | 0.78 (≈ 1.41 µM) | 1.56 (≈ 2.83 µM) | 1.56 (≈ 2.83 µM)
CC(=O)Nc1ccc2ncc(C(=O)NC(C(=O)N[C@@H]3C(=O)N4[C@@H]3SC(C)(C)[C@@H]4C(=O)O)c3ccccc3)c(O)c2c1 (stereo partly drawn) [Example 23] | 12.5 (≈ 21.6 µM) | 3.13 (≈ 5.42 µM) | 0.78 (≈ 1.35 µM) | 12.5 (≈ 21.6 µM) | 3.13 (≈ 5.42 µM)
Cc1nc(C)c2c(O)c(C(=O)NC(C(=O)NC3C(=O)N4C3SC(C)(C)C4C(=O)O)c3ccccc3)cnc2n1 (stereo not drawn) [Example 48] | 12.5 (≈ 22.7 µM) | 3.13 (≈ 5.68 µM) | 0.78 (≈ 1.42 µM) | 12.5 (≈ 22.7 µM) | 6.25 (≈ 11.4 µM)
CCN(CC)c1ccc2ncc(C(=O)NC(C(=O)NC3C(=O)N4C3SC(C)(C)C4C(=O)O)c3ccccc3)c(O)c2n1 (stereo not drawn) [Example 37] | 3.13 (≈ 5.28 µM) | 0.78 (≈ 1.32 µM) | 0.78 (≈ 1.32 µM) | 0.78 (≈ 1.32 µM) | 1.56 (≈ 2.63 µM)
Cc1nc(C)c2ncc(C(=O)NC(C(=O)NC3C(=O)N4C3SC(C)(C)C4C(=O)O)c3ccccc3)c(O)c2n1 (stereo not drawn) [Example 55] | 3.13 (≈ 5.68 µM) | 1.56 (≈ 2.83 µM) | 0.78 (≈ 1.42 µM) | 3.13 (≈ 5.68 µM) | 3.13 (≈ 5.68 µM)
Cc1cnc2c(O)c(C(=O)NC(C(=O)NC3C(=O)N4C3SC(C)(C)C4C(=O)O)c3ccccc3)cnc2c1 (stereo not drawn) [Example 33] | 6.25 (≈ 11.7 µM) | 3.13 (≈ 5.84 µM) | 1.56 (≈ 2.91 µM) | 3.13 (≈ 5.84 µM) | 3.13 (≈ 5.84 µM)
CC1(C)S[C@@H]2[C@H](NC(=O)C(NC(=O)c3cnc4cc(S(C)(=O)=O)ccc4c3O)c3ccccc3)C(=O)N2[C@H]1C(=O)O (stereo partly drawn) [Example 22] | 6.25 (≈ 10.4 µM) | 0.39 (≈ 0.651 µM) | 0.39 (≈ 0.651 µM) | 12.5 (≈ 20.9 µM) | 3.13 (≈ 5.23 µM)
